# Results from publication PMC9740789, “Investigation of In Vitro and In Vivo Metabolism of α-Amanitin in Rats Using Liquid Chromatography-Quadrupole Time-of-Flight Mass Spectrometric Method” (Molecules, 2022).
# Read-outs that look alike come from different tables or passages of the source.
# Key:
# [1] = In vitro metabolic stability in rat liver microsomes; format: in vitro ADME
# Experimental: In vitro stability of α-amanitin at liver microsomal system was evaluated by a LC-qTOF-MS. The remaining % represents the percentage of the sample (α-amanitin) peak area to the internal standard (verapamil) peak area.
# The in vitro half-life (T1/2) and the in vitro intrinsic clearance (CLint, in vitro) were calculated by using the slope (k) of the graph shown in Figure 3. The calculation formula is shown in Equations (1) and (2). (1) T1/2=ln2/k (2) CLint,in vitromL/min/mg=k×microsomal volume mL/microsomal protein mg
# The concentration of liver microsomes (microsomal volume/microsomal protein) used in the experiment was 0.5 mL/mg. The obtained CLint, in vitro was used to calculate in vivo intrinsic clearance (CLint, in vivo). The equations for calculating CLint, in vivo is shown at Equation (3):(3) CLint,in vivomL/min/kg=CLint,in vitro×mg microsomal protein/g liver weight×(g liver weight/kg body weight)
# The ratio of mg microsomal protein to g liver weight was 44.8 and 48.8 in rat and human, respectively. And the ratio of g liver weight/kg body weight was 40 and 25.7 in rat and human, respectively. The hepatic clearance (CLh) was calculated from CLint, in vivo in a well-stirred model using the following Equation (4):(4) CLhmL/min=(Qh×CLint,in vivo/Qh+CLint,in vivo)
# Qh (mL/min/kg), the hepatic blood flow, is known to be 55.2 and 20.7 mL/min/kg in rat and human, respectively. As a result, α-amanitin has a low hepatic clearance according to the aforementioned well-stirred model.
# A metabolic stability test of α-amanitin was performed in rat and human liver microsomes. Cofactors (NADPH regenerating system solution A and B), compound (100 μg/mL of α-amanitin), 0.5 M potassium phosphate buffer with pH 7.4, and DW were mixed and pre-incubated for 5 min at 37 °C. After the pre-incubation, 12 μL of rat or human liver microsome (20 mg/mL each) was added to a 468 μL of pre-incubated cofactor mixture and the mixture was incubated for 0, 15, 30, and 60 min. After the incubation for each time point, 100 μL of the mixture was aliquoted to a 1.5 mL E-tube at each time point and 100 μL of 50% ACN in MeOH which containing 250 ng/mL of verapamil as an internal standard for protein precipitation was added for stopping the reaction. Then the mixture was centrifuged at 10,000 rpm for 5 min. Then 180 μL of the supernatants was collected in a fresh E-tube and evaporated for 3 h. After evaporation, samples were reconstituted with 150 μL of 50% MeOH with 5 mM ammonium formate. After centrifugation at 10,000 rpm for 5 min, 140 μL of reconstituted sample was transferred to a LC-vial.
# [2] = Semi-mass balance study in rats; format: in vivo, rat; details: for dose excreted: Sprague-Dawley, rat
# Experimental: The excretion characteristic of α-amanitin after IV and PO administration is shown in Table 7, and the time to recovery of α-amanitin profile is shown in Figure 5. The recovery represents the percentage of the excreted amount (mg) to the administrated amount (mg).
# A semi-mass balance study was performed to explore the major elimination route of α-amanitin in rats. A non-radiolabeled α-amanitin was used for the semi-mass balance study which seems acceptable due to low metabolic turn-over of α-amanitin.
# For the semi-mass balance study, the housed rats were prepared with a bile duct cannulation and administrated by IV bolus in a lateral tail vein or by PO at 1 mg/kg for each dosing route. Urine and feces were collected using a metabolic cage (Jeungdo Bio & Plant co., Seoul, Republic of Korea), and bile was collected through a bile duct cannula. The sampling time interval were 0–4, 4–8, 8–24, and 24–48 h after administration. The urine, bile, and feces samples were stored at –20 °C until further analysis.
# [3] = format: in vitro ADME, rat; details: for Long-term stability, mean accuracy / Freeze-thaw stability, mean accuracy / Short-term stability, mean accuracy: rat plasma, LC-qTOF-MS, triplicate or more; for Long-term stability, mean accuracy: 2 weeks, –20 °C; for Freeze-thaw stability, mean accuracy: 3 cycles, –20 °C and RT; for Short-term stability, mean accuracy: 4 h, RT
# Experimental: To evaluate the stability of α-amanitin in rat plasma under the actual experimental environments, some stability tests were also conducted. The accuracy (%) and precision (% CV) of the stability test met the acceptance criteria of ±25%, identifying α-amanitin was stable under the short-term, long-term, and freeze-thaw conditions.
# The method qualification was performed with “fit-for-purpose” criteria which are suitable for discovery stage research. The qualification contained seven levels of STD and three levels of QC in duplicate. […] Preliminary stability tests were performed at low, medium, and high QC in rat plasma. The stability test was performed under three different conditions: a short-term, a long-term, and a freeze-thaw condition. The short-term stability test was conducted at room temperature (RT) for 4 h. The long-term stability was conducted at –20 °C for 2 weeks. The freeze-thaw stability was conducted for three freeze and thaw cycles at –20 °C and RT. The extraction recovery of protein precipitation was evaluated by analyzing the difference between extracted Medium-QC (165 ng/mL) samples and post-extraction QC samples. The post-extraction QC sample was prepared by spiking the α-amanitin after protein precipitation.
# The precision and accuracy of the acceptance criteria for this qualification runs were within ± 25% which are also similar to the discovery-stage bioanalytical criteria in pharmaceutical industry. All experiments were performed in triplicate or more.
structure (smiles),measurement,setting,value
CC[C@H](C)[C@@H]1NC(=O)CNC(=O)[C@@H]2Cc3c([nH]c4cc(O)ccc34)[S@+]([O-])C[C@H](NC(=O)CNC1=O)C(=O)N[C@@H](CC(N)=O)C(=O)N1C[C@H](O)C[C@H]1C(=O)N[C@@H]([C@@H](C)[C@@H](O)CO)C(=O)N2 [α-amanitin],remaining at 0.25 h,"[1]; rat liver microsomes, 15 min incubation, NADPH regenerating system, potassium phosphate buffer pH 7.4, 37 °C, 5 min pre-incubation, LC-qTOF-MS",94.2 ± 8.6%
same,remaining at 0.5 h,"[1]; rat liver microsomes, 30 min incubation, NADPH regenerating system, potassium phosphate buffer pH 7.4, 37 °C, 5 min pre-incubation, LC-qTOF-MS",93.1 ± 8.64%
same,remaining at 1 h,"[1]; rat liver microsomes, 60 min incubation, NADPH regenerating system, potassium phosphate buffer pH 7.4, 37 °C, 5 min pre-incubation, LC-qTOF-MS",90.3 ± 4.37%
same,half-life,"[1]; rat liver microsomes, in vitro half-life, ln2/k from slope of ln(Remaining %) vs incubation time 0-60 min, NADPH, pH 7.4, 37 °C",7.45 h
same,"CLint, In Vitro","[1]; rat liver microsomes, k × microsomal volume/microsomal protein (0.5 mL/mg as printed)",<10 µL/min/mg
same,CLh,"[1]; rat, predicted hepatic clearance, well-stirred model, Qh 55.2 mL/min/kg",5.05 mL/min/kg
same,"CLint, In Vivo","[1]; rat, scaled from CLint, in vitro with 44.8 mg microsomal protein/g liver and 40 g liver/kg body weight",5.56 mL/min/kg
same,dose excreted,"[2]; feces, bile duct cannulated rats, IV bolus 1 mg/kg, collection 0–48 h, excreted amount/administered amount, unchanged α-amanitin, LC-qTOF-MS, read-out: Recovery in feces",< 0.01%
same,dose excreted,"[2]; feces, bile duct cannulated rats, PO 1 mg/kg, collection 0–48 h, excreted amount/administered amount, unchanged α-amanitin, LC-qTOF-MS, read-out: Recovery in feces",22%
same,dose excreted,"[2]; urine, bile duct cannulated rats, IV bolus 1 mg/kg, collection 0–48 h, excreted amount/administered amount, unchanged α-amanitin, LC-qTOF-MS, read-out: Recovery in urine",67.9%
same,dose excreted,"[2]; urine, bile duct cannulated rats, PO 1 mg/kg, collection 0–48 h, excreted amount/administered amount, unchanged α-amanitin, LC-qTOF-MS, read-out: Recovery in urine",1.45%
same,dose excreted,"[2]; bile duct cannulated rats, IV bolus 1 mg/kg, collection 0–48 h, excreted amount/administered amount, unchanged α-amanitin, LC-qTOF-MS, read-out: Recovery in bile",1%
same,dose excreted,"[2]; bile duct cannulated rats, PO 1 mg/kg, collection 0–48 h, excreted amount/administered amount, unchanged α-amanitin, LC-qTOF-MS, read-out: Recovery in bile",0.05%
same,dose excreted,"[2]; rats, IV 1 mg/kg, urine + bile + feces, 0–48 h, read-out: Total recovery",68.9%
same,dose excreted,"[2]; rats, PO 1 mg/kg, urine + bile + feces, 0–48 h, read-out: Total recovery",23.5%
same,Time within which most of the administered α-amanitin was excreted in urine,"[2]; rats, IV 1 mg/kg",≤ 8 h
same,"Long-term stability, mean accuracy",[3]; high QC 1820 ng/mL,103%
same,"Long-term stability, mean accuracy",[3]; low QC 15.0 ng/mL,106%
same,"Long-term stability, mean accuracy",[3]; medium QC 165 ng/mL,118%
same,"Freeze-thaw stability, mean accuracy",[3]; high QC 1820 ng/mL,114%
same,"Freeze-thaw stability, mean accuracy",[3]; low QC 15.0 ng/mL,94.9%
same,"Freeze-thaw stability, mean accuracy",[3]; medium QC 165 ng/mL,103%
same,"Short-term stability, mean accuracy",[3]; high QC 1820 ng/mL,95.7%
same,"Short-term stability, mean accuracy",[3]; low QC 15.0 ng/mL,81.6%
same,"Short-term stability, mean accuracy",[3]; medium QC 165 ng/mL,80.5%
same,Stability in rat plasma (in words),"[3]; short-term, long-term, and freeze-thaw conditions, acceptance criteria ±25%",stable
